Key:
[1] = tested on: Respiratory Syncytial Virus; test: In vitro screening for activity against RSV, automated tetrazolium-based (MTT) colorimetric assay in HeLa cells; format: cell-based; details: human respiratory syncytial virus, 168 h; protection against RSV cytopathology in HeLa cells, MTT readout seven days after infection; read-out: pIC50 (converted)
Description: In vitro screening of compounds of formula (I) for activity against RSV. The percent protection against cytopathology caused by viruses (antiviral activity or EC50) achieved by tested compounds and their cytotoxicity (CC50) are both calculated from dose-response curves. The selectivity of the antiviral effect is represented by the selectivity index (SI), calculated by dividing the CC50 (cytotoxic dose for 50% of the cells) by the EC50 (antiviral activity for 50% of the cells). The tables in the above experimental part list the category to which each of the prepared compounds belong: Compounds belonging to activity category “A” have a pEC50 (-log of EC50 when expressed in molar units) equal to or more than 7. Compounds belonging to activity category “B” have a pEC50 value between 6 and 7.
Automated tetrazolium-based colorimetric assays were used for determination of EC50 and CC50 of test compounds. Flat-bottom, 96-well plastic microtiter trays were filled with 180 μl of Eagle's Basal Medium, supplemented with 5% FCS (0% for FLU) and 20 mM Hepes buffer. Subsequently, stock solutions (7.8×final test concentration) of compounds were added in 45 μl volumes to a series of triplicate wells so as to allow simultaneous evaluation of their effects on virus- and mock-infected cells. Five five-fold dilutions were made directly in the microtiter trays using a robot system. Untreated virus controls, and HeLa cell controls were included in each test. Approximately 100 TCID50 of Respiratory Syncytial Virus was added to two of the three rows in a volume of 50 μl. The same volume of medium was added to the third row to measure the cytotoxicity of the compounds at the same concentrations as those used to measure the antiviral activity. After two hours of incubation, a suspension (4×10^5 cells/ml) of HeLa cells was added to all wells in a volume of 50 μl. The cultures were incubated at 37° C. in a 5% CO2 atmosphere. Seven days after infection the cytotoxicity and the antiviral activity was examined spectrophotometrically. To each well of the microtiter tray, 25 μl of a solution of MTT (3-(4,5-dimethylthiazol-2-yl)-2,5-diphenyltetrazolium bromide) was added. The trays were further incubated at 37° C. for 2 hours, after which the medium was removed from each cup. Solubilization of the formazan crystals was achieved by adding 100 μl 2-propanol. Complete dissolution of the formazan crystals were obtained after the trays have been placed on a plate shaker for 10 min. Finally, the absorbances were read in an eight-channel computer-controlled photometer (Multiskan MCC, Flow Laboratories) at two wavelengths (540 and 690 nm). The absorbance measured at 690 nm was automatically subtracted from the absorbance at 540 nm, so as to eliminate the effects of non-specific absorption.
The percent protection against cytopathology caused by viruses (antiviral activity or EC50) achieved by tested compounds and their cytotoxicity (CC50) were both calculated from dose-response curves. The selectivity of the antiviral effect is represented by the selectivity index (SI), calculated by dividing the CC50 (cytotoxic dose for 50% of the cells) by the EC50 (antiviral activity for 50% of the cells).

| melting point [°C] | IC50 [1] [nM] | Structure (SMILES) |
| --- | --- | --- |
| 212 | 63.1 | Cc1ccc(O)c(Cn2c(=NC3CCN(CCN)CC3)n(Cc3ccc(C#N)cc3)c3ccccc32)n1 [Compound 55] |
| 204 | 251 | Cc1ccc(O)c(Cn2c(=NCCc3ccc(Br)cc3)n(Cc3ccc(C#N)cc3)c3ccccc32)n1 [Compound 57] |
| 195 | 3.16 | Cc1ccc(CCCO)c(NCc2ccc3c(c2)n(Cc2nc(C)ccc2O)c(=N)n3C)c1 [Compound 58] |

— patent US7956196B2, “1,3-dihydro-benzimidazol-2-ylidene amines as inhibitors of respiratory syncytial virus replication” (Tibotec Pharmaceuticals Ltd., priority 2005, dated 2011)
